{"source": "patent US10047058B2", "about": "“Compounds and methods for inhibiting vacuolar ATPase” (University of Southern California, priority 2015, dated 2018)", "key": {"ATP6V1A": {"biological_target": "ATP6V1A (Homo sapiens, UniProt P38606)", "sequence (P38606 whole entry)": "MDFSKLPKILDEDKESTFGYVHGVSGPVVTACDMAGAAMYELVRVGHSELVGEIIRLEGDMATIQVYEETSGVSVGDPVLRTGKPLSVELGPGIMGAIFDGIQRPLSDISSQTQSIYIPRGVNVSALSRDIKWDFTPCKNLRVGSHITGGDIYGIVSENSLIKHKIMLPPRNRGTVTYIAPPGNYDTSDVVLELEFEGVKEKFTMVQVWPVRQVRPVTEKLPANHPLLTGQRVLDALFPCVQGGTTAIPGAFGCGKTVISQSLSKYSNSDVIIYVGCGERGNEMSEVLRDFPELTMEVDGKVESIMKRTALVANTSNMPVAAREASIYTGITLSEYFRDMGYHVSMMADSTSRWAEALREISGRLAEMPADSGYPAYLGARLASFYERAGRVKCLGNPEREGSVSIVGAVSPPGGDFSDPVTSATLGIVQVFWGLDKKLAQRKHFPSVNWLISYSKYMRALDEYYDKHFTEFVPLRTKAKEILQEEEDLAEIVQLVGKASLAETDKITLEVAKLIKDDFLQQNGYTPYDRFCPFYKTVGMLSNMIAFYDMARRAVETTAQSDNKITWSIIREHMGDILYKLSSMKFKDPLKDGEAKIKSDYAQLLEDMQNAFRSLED"}, "[1]": {"system": "MB231 breast cancer cells", "conditions": "cited from earlier work"}, "mammalian cells": {"system": "mammalian cells", "conditions": "cited from earlier work"}}, "data": [{"compound": "O=C(CCl)Nc1ccc2c(Nc3ccccc3)ncnc2c1", "note": "[Formula I]", "values": [{"measurement": "IC50", "setting": "ATP6V1A", "value": "~30", "unit": "nM"}, {"measurement": "inhibition of probe QZ1 labeling (screen of electrophilic quinazolines)", "setting": "ATP6V1A; 1 μM, cells pretreated with drug 30 min, then probe for 30 min", "value": "showed potent inhibition"}]}, {"compound": "CO/C1=C\\C(C)=C\\[C@@H](C)[C@@H](O)[C@@H](C)C/C(C)=C/C=C/[C@H](OC)[C@@H]([C@@H](C)[C@@H](O)[C@H](C)[C@@]2(O)C[C@@H](O)[C@H](C)[C@@H](C(C)C)O2)OC1=O", "note": "[bafilomycin]", "values": [{"measurement": "effect on invasiveness of cancer cells", "setting": "[1]", "value": "significantly inhibited"}]}, {"compound": "archazolid", "values": [{"measurement": "concentration that blocks growth of mammalian cells", "setting": "mammalian cells", "value": "subnanomolar"}]}]}
